# Measurements as given in publication PMC7320145, “Substrate Channeling via a Transient Protein-Protein Complex: The case of D-Glyceraldehyde-3-Phosphate Dehydrogenase and L-Lactate Dehydrogenase” (Scientific Reports, 2020).
# Columns and labels:
# [1] = biological target: T1, byGAPDH (baker's yeast GAPDH); experiment: fluorescence titration, average of four read-outs (protein quenching, NADH quenching, FRET, anisotropy); design: species or system Saccharomyces cerevisiae; conditions: in terms of NADH binding sites on each tetramer
# T1 construct: gene TDH3; purified in-house or purchased from Sigma; apo-enzyme
# Text: fluorescence titration, average of four read-outs (protein quenching, NADH quenching, FRET, anisotropy) on byGAPDH (baker's yeast GAPDH)
# [2] = biological target: T2, rmGAPDH (rabbit muscle GAPDH) (Oryctolagus cuniculus, UniProt P46406); experiment: as above; conditions: in terms of NADH binding sites on each tetramer; average over sites (enzyme with negative cooperativity)
# T2 construct: natural full-length enzyme from rabbit muscle, homotetramer; purified in-house by established protocols or purchased from Sigma; apo-enzyme
# T2 sequence (P46406 whole entry): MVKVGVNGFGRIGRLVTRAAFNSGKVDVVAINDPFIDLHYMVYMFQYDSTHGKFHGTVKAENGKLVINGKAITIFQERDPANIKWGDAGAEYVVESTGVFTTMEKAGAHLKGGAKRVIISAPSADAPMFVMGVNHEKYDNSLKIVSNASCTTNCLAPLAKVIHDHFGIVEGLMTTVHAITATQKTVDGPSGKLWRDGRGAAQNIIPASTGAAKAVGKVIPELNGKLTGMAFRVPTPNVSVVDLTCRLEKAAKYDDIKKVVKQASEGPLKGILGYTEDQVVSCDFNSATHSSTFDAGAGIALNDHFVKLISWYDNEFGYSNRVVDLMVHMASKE
# Text: fluorescence titration, average of four read-outs (protein quenching, NADH quenching, FRET, anisotropy) on rmGAPDH (rabbit muscle GAPDH)
smiles,measurement,setting,value
NC(=O)C1=CN([C@@H]2O[C@H](COP(=O)(O)OP(=O)(O)OC[C@H]3O[C@@H](n4cnc5c(N)ncnc54)[C@H](O)[C@@H]3O)[C@@H](O)[C@H]2O)C=CC1 [NADH],byGAPDH-NADH KD fluorescence measurements,[1],8.2 ± 0.5 micro Molar
same,rmGAPDH-NADH KD fluorescence measurements,[2],0.8 ± 0.06 micro Molar
